{"source": "patent US8080517B2", "about": "“Cell-permeable peptide inhibitors of the JNK signal transduction pathway” (Xigen SA, priority 2005, dated 2011)", "key": {"βTC-3 cells": {"test_system": "βTC-3 cells", "assay": "IL-1β induced pancreatic β-cell death, peptide treatment, propidium iodide / Hoechst 33342 staining", "type": "cell-based", "conditions": "one single addition 1 μM, IL-1β 10 ng/ml every two days, 15 days", "method": "We investigated the effects of the inventive L-TAT-IB(s) peptides on the promotion of β-cell apoptosis elicited by IL-1. βTC-3 cell cultures were incubated for 30 minutes with 1 μM of inventive L-TAT-IB1(s) peptides followed by 10 ng/mL of IL-1. A second addition of peptide (1 μM) was performed 24 hours later. Apoptotic cells were counted after two days of incubation with IL-1 β using propidium iodide (red stained cell are dead cells) and Hoechst 33342 (blue stained cell are cells with intact plasma membrane) nuclear staining.\nLong term inhibition of IL-1 induced cells death was examined by treating βTC-3 cells as described above, except that incubation of the cells with the peptides and IL-1 β was sustained for 12 days. Additional peptides (1 μM) were added each day and additional IL-1 β (10 ng/mL) was added every 2 days. […] Taken together, these experiments provide evidence that inventive TAT-IB(s) peptides are biologically active molecules able to prevent the effects of JNK signaling on cell fate.\nInhibition of IL-1 β induced pancreatic β-cell death by the inventive D-TAT-IB1(s) peptide was analyzed. βTC-3 cells were incubated as described above for 30 minutes with one single addition of the indicated peptides (1, μM), then IL-1 (10 ng/ml) was added.\nApoptotic cells were then counted after two days of incubation with IL-1 β by use of Propidium Iodide and Hoechst 33342 nuclear staining. A minimum of 1,000 cells were counted for each experiment. Standard Error of the Means (SEM) are indicated, n=5.\nLong term inhibition of IL-1P induced cell-death by the D-TAT-IB1 peptide was also analyzed. βTC-3 cells were incubated as above for 30 minutes with one single addition of the indicated peptides (1 μM), then IL-1 β (10 ng/ml) was added, followed by addition of the cytokine every two days. Apoptotic cells were then counted after 15 days of incubation with IL-1 by use of propidium iodide and Hoechst 33342 nuclear staining. […] A minimum of 1.000 cells were counted for each experiment."}, "[1]": {"test_system": "cortical neuronal culture", "assay": "LDH release from cortical neuronal cultures following NMDA stimulation", "type": "cell-based, rat", "conditions": "5 μM pre-treatment 30 min, 100 μM NMDA, 12 h", "method": "The neuroprotective effect of the D-TAT-IB (generic)(s)/D-JNKI1 peptide (SEQ ID NO: 12) was evaluated in sister cultures pre-treated for 30 min with the indicated concentrations of peptides or MK-801 before continuous exposure to 100 μM NMDA.\nCortical neuronal culture. We dissected small pieces of cortex from the brains of two day old rat pups, incubated them with 200 units of papain for 30 min at 34° C., and then plated the neurons at densities of approximately 1×10^6 cells/plate on dishes pre-coated with 100 μg/ml poly-D-lysine. The plating medium consisted of B27/Neurobasal (Life Technologies, Gaithersburg, Md.) supplemented with 0.5 mM glutamine, 100 U/ml penicillin and 100 ug/ml streptomycin.\nLactate dehydrogenate (LDH) cytotoxicity assay. LDH released into the bathing medium 12, 24 and 48 h after NMDA administration was measured using the Cytotox 96 non-radioactive cytotoxicity assay kit (Promega, Wis.) (see FIG. 5)."}, "[2]": {"assay": "Focal cerebral ischemia, permanent MCAO model, lesion volume", "type": "in vivo, 12-days-old rats", "excerpt": "Focal cerebral ischemia was induced in 12-days-old rats. Pups were anesthetized in an induction chamber with 2% isoflurane and during the operation anaesthesia was maintained using a mask under 2% isoflurane. MCAO was induced by electrocoagulating a main branch of the middle cerebral artery (MCA). Rats were placed on the right side, and an oblique dermal incision was made between the ear and eye. After excision of the temporal muscle, the cranial bone was removed from the frontal suture to a level below the zygomatic arch. […] The cranial skin incision was then closed. Rat pups were then placed in an incubator maintained at 37° C. until they awoke, and were then transferred to their mother.\n6 hours later an inventive chimeric D-TAT-IB1(s) peptide according to SEQ ID NO: 11 was injected intraperitoneally. 24 hours after the coagulation, the rats were anesthetized with chloral hydrate and perfused through the ascending aorta with 4% paraformaldehyde in PBS. Brains were then removed and kept for 2 hours in the same fixative solution, and placed in a gradient of 30% sucrose in PBS for about 15 hours at 4° C. Brains were frozen in isopentane (−40° C.) and stored at −20° C. Coronal cryostat sections of 50 µm were collected on glass slides. The sections were stained with cresyl violet. Each tenth section was analyzed and the total volume of the lesion was calculated using the Neuroleucida programme. In the control group A, the mean lesion volume was 21.47 mm^3. […] A significant statistic difference is observed between group A and groups C, E and F (one-tailed t-test, p=0.030, p=0.002, p=0.001 respectively)."}}, "note": "Where a SMILES comes first, the peptide text is derived from it. [ ]: non-standard residue; d: D form.", "data": [{"smiles": "CC(C)C[C@@H](NC(=O)[C@@H](Cc1ccccc1)NC(=O)[C@H]1CCCN1C(=O)[C@@H](CCC(N)=O)NC(=O)[C@H](NC(=O)[C@H]1CCCN1C(=O)[C@@H](CCCNC(=N)N)NC(=O)[C@@H](CO)NC(=O)[C@@H](CCC(N)=O)NC(=O)[C@H](N)CC(=O)O)C(C)C)C(=O)N[C@H](CC(N)=O)C(=O)N[C@H](CC(C)C)C(=O)N[C@@H](C(=O)N[C@@H](C(=O)N1CCC[C@@H]1C(=O)N[C@H](CCCNC(=N)N)C(=O)N[C@H](CCCCN)C(=O)N1CCC[C@@H]1C(=O)N[C@H](CCCNC(=N)N)C(=O)N1CCC[C@@H]1C(=O)N1CCC[C@@H]1C(=O)N[C@H](CCCNC(=N)N)C(=O)N[C@H](CCCNC(=N)N)C(=O)N[C@H](CCCNC(=N)N)C(=O)N[C@H](CCC(N)=O)C(=O)N[C@H](CCCNC(=N)N)C(=O)N[C@H](CCCNC(=N)N)C(=O)N[C@H](CCCCN)C(=O)N[C@H](CCCCN)C(=O)N[C@H](CCCNC(=N)N)C(=O)NCC(=O)O)[C@H](C)O)[C@H](C)O", "note": "[D-TAT-IB1(s)] (H-[dD][dQ][dS][dR][dP][dV][dQ][dP][dF][dL][dN][dL][dT][dT][dP][dR][dK][dP][dR][dP][dP][dR][dR][dR][dQ][dR][dR][dK][dK][dR]G-OH)", "values": [{"measurement": "long term inhibition of IL-1β induced cell-death", "setting": "βTC-3 cells", "value": "able to confer long term (15 day) protection"}, {"measurement": "degenerative changes due to NMDA exposure (LDH release above controls)", "setting": "[1]", "value": "completely inhibited"}, {"measurement": "morphological appearance, number and distribution of the neurons", "setting": "[1]", "value": "indistinguishable from the controls"}, {"measurement": "mean lesion volume of all treated groups versus control group", "setting": "[2]; control group mean 21.47 mm^3", "value": "lower mean than the control group"}, {"measurement": "cerebral protection (lesion volume) compared to saline group", "setting": "[2]; doses 1 mg/kg, 0.003 mg/kg and 0.0003", "value": "not large enough to reach a significant difference"}, {"measurement": "dose of best protection", "setting": "[2]; i.p. 6 hours after MCAO", "value": 0.03, "unit": "mg/kg"}, {"measurement": "cerebral protection (lesion volume)", "setting": "[2]; i.p. 6 hours after MCAO, doses 11 mg/kg, 3 mg/kg, 0.3 mg/kg and 0.03 mg/kg, 24 hours after coagulation", "value": "contributes to a cerebral protection"}]}]}
